According to paper PMC9031226, “Preclinical Therapeutic Assessment of a New Chemotherapeutics [Dichloro(4,4’-Bis(2,2,3,3-Tetrafluoropropoxy) Methyl)-2,2’-Bipryridine) Platinum] in an Orthotopic Patient-Derived Xenograft Model of Triple-Negative Breast Cancers” (Pharmaceutics, 2022):

Assays:
COLO205 = test: MTT cell viability assay on COLO205; format: cell-based, human; details: for reduction (proliferative inhibition): COLO205, 20 μM; for IC50: COLO205, MTT assay, 48 h
Description: Human cancer cell lines, including MDA-MB-231, MCF-7, COLO205 and SK-OV-3, used in this study were purchased from American Type Culture Collection (ATCC, Manassas, VA, USA). All cell cultures were maintained in a 5% CO2-containing incubator at 37 °C. Triple-negative breast cancer cell line MDA-MB-231 and estrogen receptor-positive breast cancer cells MCF-7 were cultured in Dulbecco’s Modified Eagle Medium/Nutrient Mixture F-12 medium (DMEM/F12, Thermo Fisher Scientific Inc., Waltham, MA, USA) supplemented with 1% HyClone Penicillin-Streptomycin 100X solution (Cytiva, Marlborough, MA, USA) and 10% (v/v) fetal bovine serum (Thermo Fisher Scientific Inc., Waltham, MA, USA). COLO205 colon cancer cells and SK-OV-3 ovarian cancer cells were cultured in Roswell Park Memorial Institute (RPMI) 1640 medium (Thermo Fisher Scientific Inc., Waltham, MA, USA) containing the same supplements as described above.
Cell viability was evaluated using MTT assay. […] A viable cell count was determined by adding MTT reagent (3-(4,5-Dimethyl-2-thiazolyl)-2,5-diphenyl-2H-tetrazolium bromide (MTT; SERVA, Heidelberg, Germany) at a concentration of 5 mg/mL in PBS followed by measurement of the absorbance at 570 nm for each well detected by μQuant™ universal microplate spectrophotometer (BioTek, Winowski, VT, USA). The assessment procedures were followed under the manufacturer’s instructions. The final results were represented as mean values in the same experimental group detected by a microplate reader.

[1] = CDX model: body and organ weight, CBC and blood biochemistry; format: in vivo; details: NSG mice
Description: The procedures for the establishment of breast cancer-bearing xenograft models were modified from a previous publication and approved by the Taipei Medical University (TMU) Institutional Animal Care and Use Committee (IACUC No. LAC-2020-0175). Overall, 4- to 6-week-old NOD.Cg-PrkdcscidIl2rgtm1Wjl/SzJ (NSG) female mice purchased from National Laboratory Animal Center (Taipei, Taiwan) were housed in specific pathogen-free rooms with ad libitum feeding and 12 h light–dark cycle. After a week of acclimatization, 2 × 10^6 MDA-MB-231 cells suspended in 1:1 ratio of phosphate-buffered saline plus Matrigel® Matrix (Cat. 356237; Corning Inc., New York, NY, USA) were subcutaneously injected on the right flank of each mouse. […] To monitor tumor growth in the models, tumor diameter was measured using an electronic caliper and values were applied on the equation: width^2 × length × 0.52 to estimate their tumor volume. All mice were sacrificed on day 28 after treatment. Plasma, tumors and major organs (heart, liver, kidney, spleen and lung) were collected for toxicity assessment and metastasis evaluation. Whole blood harvested from sacrificed animals was collected in EDTA-containing or heparin-containing tubes for CBC and biochemical analysis. For biochemical analysis, whole blood was centrifuged under 2000× g for 5 min to separate plasma from blood cells and then plasma was kept and stored in a −20 °C fridge until further analysis. Concentrations of albumin, total protein, aspartate aminotransferase (AST), alanine aminotransferase (ALT) and creatinine (CREA) in plasma, numbers of red blood cells (RBC), platelets (PLT), white blood cells (WBC) and hemoglobin (HGB) concentration in EDTA-anticoagulated whole blood were determined by medical laboratory scientists in Taipei Medical University Hospital (Taipei, Taiwan).

[2] = PDX model: body and organ weight, CBC and blood biochemistry; format: in vivo; details: NSG mice
From the text: The procedures for the establishment of breast cancer-bearing xenograft models were modified from previous publications and approved by the Taipei Medical University (TMU) Institutional Animal Care and Use Committee (IACUC No. LAC- 2021-0546) and the Joint Institutional Review Board of Taipei Medical University (N201812005). Overall, 4- to 6-week-old NOD.Cg-PrkdcscidIl2rgtm1Wjl/SzJ (NSG) female mice purchased from BioLASCO Taiwan Co., Ltd. (Taipei, Taiwan) were housed in specific pathogen-free rooms with ad libitum feeding and 12 h light–dark cycle. Patient-derived TNBC tumors were microscopically considered for a hypervascular background and frequent mitosis features, and triple-negative results for estrogen receptor, progesterone receptor and human epidermal growth factor receptor 2 (HER2). After a week of acclimatization, patient-derived TNBC tumors dissected into 3 × 3 × 3 mm^3 were implanted using puncture needle in fat pads between the third and fourth mammary glands for each mouse. […] Tumor growth curves were generated by measuring tumor diameters and then calculating based on the same equation described above. Finally, the mice were sacrificed on day 23 after the first dose of treatments. Plasma, tumors and major organs (heart, liver, kidney, spleen and lung) were collected for toxicity assessment and metastasis evaluation. Whole blood harvested from sacrificed animals was collected in EDTA-containing or heparin-containing tubes for CBC and biochemical analysis. For biochemical analysis, whole blood was centrifuged under 2000× g for 5 min to separate plasma from blood cells and then plasma was kept and stored in a −20 °C fridge until further analysis. Concentrations of albumin, total protein, aspartate aminotransferase (AST), alanine aminotransferase (ALT) and creatinine (CREA) in plasma, numbers of red blood cells (RBC), platelets (PLT), white blood cells (WBC) and hemoglobin (HGB) concentration in EDTA-anticoagulated whole blood were determined by medical laboratory scientists in Taipei Medical University Hospital (Taipei, Taiwan).

[3] = 5 mg/kg i.p. weekly x4, day 28, reference interval 0.2–0.5
[4] = 5 mg/kg i.p. weekly x4, day 28, reference interval 4–10.9
[5] = 5 mg/kg i.p. weekly x4, day 28, reference interval 7.75–9.61
[6] = 5 mg/kg i.p. weekly x4, day 28, reference interval 13–39
[7] = 5 mg/kg i.p. weekly x4, day 28, reference interval 63–227
[8] = 5 mg/kg i.p. weekly x4, day 28, reference interval 853–1951
[9] = 5 mg/kg i.p. weekly x4, day of sacrifice (day 28)
[10] = 5 mg/kg i.v. weekly x4, day 23, reference interval 0.2–0.5
[11] = 5 mg/kg i.v. weekly x4, day 23, reference interval 13–39
[12] = 5 mg/kg i.v. weekly x4, day 23, reference interval 63–227
[13] = 5 mg/kg i.v. weekly x4, day 23, reference interval 853–1951
[14] = 5 mg/kg i.v. weekly x4, day of sacrifice (day 23)
[15] = 2.11 mg/kg i.p. weekly x4, day 28
[16] = 2.11 mg/kg i.v. weekly x4, day 23

## FC(F)C(F)(F)COCc1ccnc(-c2cc(COCC(F)(F)C(F)F)ccn2)c1.[Cl][Pt][Cl] [TFBPC]
COLO205
  reduction (proliferative inhibition): 72%
  IC50: 11.5 µM
COLO205; MTT, 20 to 80 μM, 24 or 48 h, supplementary figure
  cell viability of COLO205 cells: effective in inhibiting the cell viability
[1]; 5 mg/kg i.p. weekly x4, day 28
  Heart: 0.14 ± 0.04 g
  Kidney: 0.31 ± 0.02 g
  Liver: 1.04 ± 0.08 g
  Lung: 0.23 ± 0.04 g
  Spleen: 0.03 ± 0.00 g
[1]; [3]
  CREA: 0.20 ± 0.00 mg/dL
[1]; 5 mg/kg i.p. weekly x4, day 28, reference interval 3.0–3.9
  Albumin: 3.20 ± 0.29 g/dL
[1]; [4]
  WBC: 5.70 ± 1.54 10^3/µL
[1]; 5 mg/kg i.p. weekly x4, day 28, reference interval 4.5–5.5
  Total protein: 4.98 ± 0.17 g/dL
[1]; [5]
  RBC: 9.85 ± 0.30 10^6/µL
[1]; 5 mg/kg i.p. weekly x4, day 28, reference interval 12.20–13.90
  HGB: 14.9 ± 0.53 g/dL
[1]; [6]
  ALT: 38.75 ± 7.09 U/L
[1]; [7]
  AST: 190.0 ± 65.17 U/L
[1]; [8]
  PLT: 975 ± 205.8 10^3/µL
[1]; [9]
  Body weight: 23.62 ± 1.56 g
[2]; 5 mg/kg i.v. weekly x4, day 23
  Kidney: 0.36 ± 0.02 g
  Liver: 1.58 ± 0.11 g
  Lung: 0.24 ± 0.02 g
  Spleen: 0.30 ± 0.05 g
[2]; [10]
  CREA: 0.10 ± 0.12 mg/dL
[2]; 5 mg/kg i.v. weekly x4, day 23, reference interval 3.0–3.9
  Albumin: 2.93 ± 0.40 g/dL
[2]; 5 mg/kg i.v. weekly x4, day 23, reference interval 4.5–5.5
  Total protein: 4.6 ± 0.32 g/dL
[2]; 5 mg/kg i.v. weekly x4, day 23, reference interval 7.75–9.61
  RBC: 6.97 ± 0.58 10^6/µL
[2]; 5 mg/kg i.v. weekly x4, day 23, reference interval 12.20–13.90
  HGB: 11.8 ± 0.56 g/dL
[2]; [11]
  ALT: 14.75 ± 4.50 U/L
[2]; [12]
  AST: 131.75 ± 31.70 U/L
[2]; [13]
  PLT: 872.75 ± 81.04 10^3/µL
[2]; [14]
  Body weight: 25.72 ± 1.22 g

## N.N.[Cl][Pt][Cl] [CDDP, Cis-diamineplatinum(II) dichloride]
COLO205
  reduction (proliferative inhibition): 23%
  IC50: 70 µM
[1]; [15]
  Heart: 0.14 ± 0.04 g
  Kidney: 0.31 ± 0.02 g
  Liver: 1.04 ± 0.08 g
  Lung: 0.23 ± 0.04 g
  Spleen: 0.03 ± 0.00 g
[1]; 2.11 mg/kg i.p. weekly x4, day 28, reference interval 0.2–0.5
  CREA: 0.20 ± 0.00 mg/dL
[1]; 2.11 mg/kg i.p. weekly x4, day 28, reference interval 4–10.9
  WBC: 3.48 ± 0.13 ^§ 10^3/µL
[1]; 2.11 mg/kg i.p. weekly x4, day 28, reference interval 7.75–9.61
  RBC: 9.25 ± 0.33 10^6/µL
[1]; 2.11 mg/kg i.p. weekly x4, day 28, reference interval 13–39
  ALT: 34.25 ± 9.18 U/L
[1]; 2.11 mg/kg i.p. weekly x4, day 28, reference interval 63–227
  AST: 120.3 ± 20.82 U/L
[1]; 2.11 mg/kg i.p. weekly x4, day 28, reference interval 853–1951
  PLT: 867.3 ± 97.6 10^3/µL
[1]; 2.11 mg/kg i.p. weekly x4, day of sacrifice (day 28)
  Body weight: 24.08 ± 2.89 g
[1]; 5 mg/kg i.p. weekly x4, day 28
  Heart: 0.13 ± 0.01 g
  Kidney: 0.29 ± 0.02 g
  Liver: 0.98 ± 0.10 g
  Lung: 0.26 ± 0.13 g
  Spleen: 0.13 ± 0.18 g
[1]; [3]
  CREA: 0.23 ± 0.05 mg/dL
[1]; [4]
  WBC: 6.33 ± 1.59 10^3/µL
[1]; [5]
  RBC: 9.18 ± 0.46 10^6/µL
[1]; [6]
  ALT: 29.00 ± 3.46 U/L
[1]; [7]
  AST: 172.3 ± 44.28 U/L
[1]; [8]
  PLT: 927.80 ± 223.4 10^3/µL
[1]; [9]
  Body weight: 22.20 ± 2.12 g
[2]; [16]
  Kidney: 0.33 ± 0.03 g
  Liver: 1.51 ± 0.12 g
  Lung: 0.23 ± 0.01 g
  Spleen: 0.22 ± 0.07 g
[2]; 2.11 mg/kg i.v. weekly x4, day 23, reference interval 0.2–0.5
  CREA: 0.20 ± 0.00 mg/dL
[2]; 2.11 mg/kg i.v. weekly x4, day 23, reference interval 4–10.9
  WBC: 6.09 ± 1.32 * 10^3/µL
[2]; 2.11 mg/kg i.v. weekly x4, day 23, reference interval 7.75–9.61
  RBC: 7.41 ± 0.51 10^6/µL
[2]; 2.11 mg/kg i.v. weekly x4, day 23, reference interval 13–39
  ALT: 14.00 ± 4.90 U/L
[2]; 2.11 mg/kg i.v. weekly x4, day 23, reference interval 63–227
  AST: 207.00 ± 101.18 U/L
[2]; 2.11 mg/kg i.v. weekly x4, day 23, reference interval 853–1951
  PLT: 946.75 ± 150.28 10^3/µL
[2]; 2.11 mg/kg i.v. weekly x4, day of sacrifice (day 23)
  Body weight: 24.06 ± 2.18 g
[2]; 5 mg/kg i.v. weekly x4, day 23
  Heart: 0.11 ± 0.02 g
  Kidney: 0.35 ± 0.04 g
  Liver: 1.63 ± 0.22 g
  Lung: 0.23 ± 0.03 g
  Spleen: 0.17 ± 0.04 g
[2]; [10]
  CREA: 0.15 ± 0.10 mg/dL
[2]; [11]
  ALT: 13.00 ± 3.27 U/L
[2]; [12]
  AST: 137.00 ± 34.79 U/L
[2]; [13]
  PLT: 877.00 ± 170.99 10^3/µL
[2]; [14]
  Body weight: 25.48 ± 0.98 g
